Laboratory results as given in article PMC12227560, “Total synthesis of a sorrentanone ester library and evaluation of its antimicrobial potential” (Scientific Reports, 2025).
Values after ≈ are worked out from the molar mass of the structure shown.

Columns and labels:
Caenorhabditis elegans = experiment: In vivo toxicity C. elegans survival assay; conditions: for survival rate: C. elegans, 50 µg/mL (highest tested concentration), 48 h
Description: 3. Bioactivity and Toxicity Assays […]
Compounds were dissolved in DMSO at a concentration of 50 mg/mL, and the highest tested concentration was 250 µg/mL. […]
In vivo toxicity C. elegans assay: The C. elegans survival assay was carried out as described previously with some modifications. 8 In brief, synchronized worms (L4 stage) were suspended in a medium containing 95% M9 buffer (3.0 g of KH2PO4, 6.0 g of Na2HPO4, 5.0 g of NaCl, and 1 mL of 1 M MgSO4 × 7H2O in 1 L of water), 5% LB (Luria-Bertani) broth (Oxoid, Basingstoke, UK), and 10 μg of cholesterol (Sigma -Aldrich, Munich, Germany) per mL. The experiment was carried out in 96 -well flat -bottomed microtiter plates (Sarstedt, Nümbrecht, Germany) in the final volume of 100 μL per wel l. 25 μL of this suspension of nematodes (25 –35 nematodes) were transferred to the wells of a 96 -well microtiter plate, where 50 μL of the medium was previously added. Next, 25 μL of a solvent control (DMSO) or 25 μL of a concentrated solution was added to the test wells. The final concentrations of the compounds were 50, 25, 10, and 5 µg/mL. Subsequently, the plates were incubated at 25 °C for 2 days. The fraction of dead worms was determined after 48 h by counting the number of dead worms and the total number of worms in each well, using a stereomicroscope (SMZ143-N2GG, Motic, Germany).
As a negative control experiment, nematodes were exposed to the medium containing 1% […]
Ergosterol biosynthesis assay: Ergosterol levels were measured according to the published procedure with some minor modifications. 10 Briefly, a sing le C. albicans colony from an overnight Sabouraud dextrose agar plate was used to inoculate 50 ml of Sabouraud dextrose broth containing 0.5 MIC concentrated compounds. Incubation was performed for 18 h at 37 °C on the rotary shaker at 180 rpm. Cells were harvested by centrifugation at 3000 rpm for 5 min and washed once with sterile distilled water. The net wet weight of the cell pellet was determined. Three milliliters of 25% alcoholic potassium hydroxide solution (25 g of KOH and 35 ml of sterile distill ed water, brought to 100 ml with 100% ethanol), was added to each pellet and vortex mixed for 1 min and incubated in an 85 °C water bath for 1 h. Tubes were cooled to room temperature and extraction of sterols was done with the addition of a mixture of 1 ml of sterile distilled water and 3 ml of n-heptane followed by vigorous vortex mixing for 3 min. The heptane layer was used for spectrophotometrically measuring ergosterol concentrations by scanning absorbance between 240 nm and 300 nm using Ultrospec 3300pro 573 (Amer sham Biosciences, Amersham, UK).

S. aureus MRSA = experiment: Antimicrobial broth micro-dilution assay (MIC); format: cell-based; conditions: Staphylococcus aureus; S. aureus MRSA; 24 h at 37 °C; highest tested concentration 250 µg/mL; read-out: Minimum inhibitory concentration (MIC)
Summary of the method: (§1)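 Micro-dilution MIC; bacteria 5x10^5 CFU/mL (NCCLS M07-A8), Candida 1x10^5 CFU/mL (EUCAST v 7.3.1); max 250 µg/mL; 24 h, 37 °C.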

C. albicans ATCC10231 = experiment: Antimicrobial broth micro-dilution assay (MIC); format: cell-based; conditions: Candida albicans; C. albicans ATCC10231; 24 h at 37 °C; highest tested concentration 250 µg/mL; read-out: Minimum inhibitory concentration (MIC)
Summary of the method: as §1

E. coli NCTC9001 = experiment: Antimicrobial broth micro-dilution assay (MIC); format: cell-based; conditions: Escherichia coli; E. coli NCTC9001; 24 h at 37 °C; highest tested concentration 250 µg/mL; read-out: Minimum inhibitory concentration (MIC)
Summary of the method: as §1

S. aureus ATCC25923 = experiment: Antimicrobial broth micro-dilution assay (MIC); format: cell-based; conditions: Staphylococcus aureus; S. aureus ATCC25923; 24 h at 37 °C; highest tested concentration 250 µg/mL; read-out: Minimum inhibitory concentration (MIC)
Summary of the method: as §1

Structure (SMILES)	in vivo toxicity (in words) (Caenorhabditis elegans; C. elegans model)	survival rate (Caenorhabditis elegans)	MIC (S. aureus MRSA)	MIC (C. albicans ATCC10231)	MIC (E. coli NCTC9001)	MIC (S. aureus ATCC25923)
CC1=C(O)C(=O)C(C)=C(C(=O)OCCCC(C)C)C1=O [compound 36]	comparatively lower in vivo toxicity	over 90%	31.2 µg/mL (≈ 111 µM)	62.5 µg/mL (≈ 223 µM)	> 250 µg/mL	15.6 µg/mL (≈ 55.7 µM)
CC1=C(O)C(=O)C(C)=C(C(=O)OCc2ccccc2)C1=O [compound 41]	–	over 90%	15.6 µg/mL (≈ 54.5 µM)	62.5 µg/mL (≈ 218 µM)	> 250 µg/mL	31.2 µg/mL (≈ 109 µM)
